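Method: 48-hour compound exposure of cells in 96-well plates, five concentrations, linear interpolation of endpoints. GI50 is the concentration that inhibits growth by half. TGI is the concentration that stops growth completely.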
Tests used:
Test in all cases: growth of human tumour cells (NCI), 48 h
[1] = tested on: NCI-H460 lung
[2] = tested on: NCI-H522 lung
[3] = tested on: NCI/ADR-RES ovarian
[4] = tested on: OVCAR-3 ovarian
[5] = tested on: OVCAR-4 ovarian
[6] = tested on: OVCAR-5 ovarian
[7] = tested on: OVCAR-8 ovarian
[8] = tested on: PC-3 prostate
[9] = tested on: RPMI-8226 leukemia
[10] = tested on: RXF 393 renal
[11] = tested on: SF-268 CNS
[12] = tested on: SF-295 CNS
[13] = tested on: SF-539 CNS
[14] = tested on: SK-MEL-2 melanoma
[15] = tested on: SK-MEL-28 melanoma
[16] = tested on: SK-MEL-5 melanoma
[17] = tested on: SK-OV-3 ovarian
[18] = tested on: SN12C renal
[19] = tested on: SNB-19 CNS
[20] = tested on: SNB-75 CNS
[21] = tested on: SR leukemia
[22] = tested on: SW-620 colon
[23] = tested on: T-47D breast
[24] = tested on: TK-10 renal
[25] = tested on: U251 CNS
[26] = tested on: UACC-257 melanoma
[27] = tested on: UACC-62 melanoma
[28] = tested on: UO-31 renal

O=C(Cc1ccccc1)NC(c1ccc(Cl)cc1)c1c(O)ccc2ccccc12 (stereo unspecified)
GI50 [1]: 2.66 µM | TGI [1]: 7.61 µM | GI50 [2]: 2.82 µM | TGI [2]: 7.57 µM | GI50 [3]: 3.41 µM | TGI [3]: 11.5 µM | GI50 [4]: 2.97 µM | TGI [4]: 7.64 µM | GI50 [5]: 2.73 µM | TGI [5]: 10.2 µM | GI50 [6]: 3.16 µM | TGI [6]: 10.2 µM | GI50 [7]: 3.56 µM | TGI [7]: 16.9 µM | GI50 [8]: 3.19 µM | TGI [8]: 10.6 µM | GI50 [9]: 2.84 µM | TGI [9]: 8.36 µM | GI50 [10]: 2.17 µM | TGI [10]: 8.03 µM | GI50 [11]: 4.25 µM | TGI [11]: 16 µM | GI50 [12]: 2.35 µM | TGI [12]: 7.5 µM | GI50 [13]: 2.53 µM | TGI [13]: 7.51 µM | GI50 [14]: 2.9 µM | TGI [14]: 6.83 µM | GI50 [15]: 3.16 µM | TGI [15]: 11.6 µM | GI50 [16]: 1.73 µM | TGI [16]: 3.2 µM | GI50 [17]: 3.01 µM | TGI [17]: 9.26 µM | GI50 [18]: 2.99 µM | TGI [18]: 11.5 µM | GI50 [19]: 3.25 µM | TGI [19]: 13.8 µM | GI50 [20]: 2.22 µM | TGI [20]: 12.4 µM | GI50 [21]: 2.56 µM | TGI [21]: 10.1 µM | GI50 [22]: 3.22 µM | TGI [22]: 13.4 µM | GI50 [23]: 3.65 µM | TGI [23]: 13.8 µM | GI50 [24]: 4.17 µM | TGI [24]: 13.2 µM | GI50 [25]: 2.55 µM | TGI [25]: 6.94 µM | GI50 [26]: 2.77 µM | TGI [26]: 10.4 µM | GI50 [27]: 2.25 µM | TGI [27]: 6.07 µM | GI50 [28]: 2.41 µM | TGI [28]: 8.93 µM

Source: PubChem BioAssay (NCI)
